Source: US20250129091A1, “THIENOPYRROLOTRIAZINE COMPOUNDS, THEIR PREPARATION AND THEIR THERAPEUTIC USE” (Sanofi, priority 2022, published 2025)
Counter-ions that a name gives are not always drawn.

These compounds were tested on NLRP3 inflammasome (assay: IL-1β secretion assay (LPS-primed, nigericin-activated THP-1 cells, MSD readout)). Conditions: Homo sapiens, LPS-primed, read-out: IL1b IC50.
Format: cell-based
Experimental: Monocytic THP-1 cells (DSMZ) were maintained in RPMI media (RPMI 1640 Medium (1×) +10% FBS, Eurobio CVFSVFOO—OU). Cells were then plated at 16,000 cells per well in 96-well round bottom cell culture plates (TPP, ref 92097) and maintained with RPMI and 0.1% Bovine Serum Albumin solution. Activation of the NLRP3 inflammasome requires both an NF-kB-dependent priming step and the addition of a NLRP3 activator. The priming step was induced by LPS (10 ng/mL, Sigma, ref:L4391) for 3 h at 37° C., then compound, in a 1:3.10 serial dilution series in DMSO 1:100, and the activator nigericin (Sigma Aldrich, ref: SML1779) 10 μM (final concentration) were added to the cells and co-incubated for 2 h. 50 μL supernatant was removed, and IL-1β levels were monitored using an MSD assay (Electro Chemical Luminescence Immunoassay (ECLI) according to manufacturers' instructions.
IC50 values were calculated from the plot of percentage of inhibition versus the inhibitor concentration by a logistics fit according to: y=A2+(A1−A2)/(1+(x/IC50)^p) where y is the %-inhibition at the inhibitor concentration, x. A1 is the lowest inhibition value, i.e., 0%, and A2 the maximum inhibition value, i.e., 100%. The exponent, p, is the Hill coefficient. The curve fitting was conducted with an internally developed software.

Row | SMILES | IC50
1 | CC(C)c1nn(CC(=O)NC2CN3CCC2CC3)c(=O)c2cc3ccsc3n12 (centres unmarked) [Example 39, 2-(8-isopropyl-5-oxothieno[3′,2′:4,5]pyrrolo[1,2-d][1,2,4]triazin-6(5H)-yl)-N-(quinuclidin-3-yl)acetamide] | 2230 nM

Same assay, conditions: Homo sapiens, THP-1, LPS-primed, read-out: IL1b IC50

Row | SMILES | IC50
2 | CC(C)c1nn(CC(=O)Nc2ccc3cnn(C)c3c2)c(=O)c2cc3ccsc3n12 [Example 27, 2-(8-isopropyl-5-oxothieno[3′,2′:4,5]pyrrolo[1,2-d][1,2,4]triazin-6(5H)-yl)-N-(1-methyl-1H-indazol-6-yl)acetamide formate] | 1030 nM
3 | COCc1nn(CC(=O)N[C@@H]2CCCN(C3CC3)C2)c(=O)c2cc3ccsc3n12 [Example 33, (R)—N-(1-cyclopropylpiperidin-3-yl)-2-(8-(methoxymethyl)-5-oxothieno[3′,2′:4,5]pyrrolo[1,2-d][1,2,4]triazin-6(5H)-yl)acetamide 2,2,2-trifluoroacetate] | 2750 nM
4 | CC(=O)N1CCC[C@@H](NC(=O)Cn2nc(C(C)C)n3c(cc4ccsc43)c2=O)C1 [Example 42, (R)—N-(1-acetylpiperidin-3-yl)-2-(8-isopropyl-5-oxothieno[3′,2′:4,5]pyrrolo[1,2-d][1,2,4]triazin-6(5H)-yl)acetamide] | 1150 nM
5 | CC(C)c1nn(CC(=O)N[C@@H]2CCCCN(C3CC3)C2)c(=O)c2cc3ccsc3n12 [Example 61, N-[(3R)-1-cyclopropylazepan-3-yl]-2-(12-isopropyl-9-oxo-3-thia-1,10,11-triazatricyclo [6.4.0.02,6]dodeca-2(6),4,7,11-tetraen-10-yl)acetamide] | 159 nM
6 | CCc1nn(CC(=O)N[C@@H]2CCCN(C3CC3)C2)c(=O)c2cc3ccsc3n12 [Example 60, N-[(3R)-1-cyclopropyl-3-piperidyl]-2-(12-ethyl-9-oxo-3-thia-1,10,11-triazatricyclo [6.4.0.02,6]dodeca-2(6),4,7,11-tetraen-10-yl)acetamide] | 130 nM
7 | CC(C)c1nn(CC(=O)N[C@@H]2CCCN(c3nccn3C)C2)c(=O)c2cc3ccsc3n12 [Example 45, (R)-2-(8-isopropyl-5-oxothieno[3′,2′:4,5]pyrrolo[1,2-d][1,2,4]triazin-6(5H)-yl)-N-(1-(1-methyl-1H-imidazol-2-yl)piperidin-3-yl)acetamide] | 1530 nM
8 | CC(C)c1nn(CC(=O)Nc2ccccn2)c(=O)c2cc3ccsc3n12 [Example 58, 2-(12-isopropyl-9-oxo-3-thia-1,10,11-triazatricyclo[6.4.0.02,6]dodeca-2(6),4,7,11-tetraen-10-yl)-N-(2-pyridyl)acetamide] | 657 nM
9 | CC(C)c1nn(CC(=O)NC2CCN(C)C(=O)C2)c(=O)c2cc3ccsc3n12 (centres unmarked) [Example 46, 2-(8-isopropyl-5-oxothieno[3′,2′:4,5]pyrrolo[1,2-d][1,2,4]triazin-6(5H)-yl)-N-(1-methyl-2-oxopiperidin-4-yl)acetamide] | 8200 nM
10 | COCc1nn(CC(=O)N[C@@H]2CCCN(C3CCC3)C2)c(=O)c2cc3ccsc3n12 [Example 32, (R)—N-(1-cyclobutylpiperidin-3-yl)-2-(8-(methoxymethyl)-5-oxothieno [3′,2′:4,5]pyrrolo[1,2-d][1,2,4]triazin-6(5H)-yl)acetamide] | 3060 nM
11 | COc1ccc(NC(=O)Cn2nc(C(C)C)n3c(cc4ccsc43)c2=O)cn1 [Example 16, 2-(8-isopropyl-5-oxothieno[3′,2′:4,5]pyrrolo[1,2-d][1,2,4]triazin-6(5H)-yl)-N-(6-methoxypyridin-3-yl)acetamide] | 1520 nM
12 | CC(C)c1nn(CC(=O)NC2CCCN(C(C)(C)C)C2)c(=O)c2cc3ccsc3n12 (centres unmarked) [Example 37, N-(1-(tert-butyl)piperidin-3-yl)-2-(8-isopropyl-5-oxothieno[3′,2′:4,5]pyrrolo[1,2-d][1,2,4]triazin-6(5H)-yl)acetamide formate] | 45 nM
13 | CC(C)c1nn(CC(=O)NC2CN(C3CC3)CC(F)(F)C2)c(=O)c2cc3ccsc3n12 (centres unmarked) [Example 63, N-(1-cyclopropyl-5,5-difluoropiperidin-3-yl)-2-(8-isopropyl-5-oxothieno[3′,2′:4,5]pyrrolo [1,2-d][1,2,4]triazin-6(5H)-yl)acetamide 2,2,2-trifluoroacetate] | 1660 nM
14 | CC(C)c1nn(CC(=O)NC2CCCN(C3CCC3(C)C)C2)c(=O)c2cc3ccsc3n12 (racemic) [Example 57, 2-(12-isopropyl-9-oxo-3-thia-1,10,11-triazatricyclo[6.4.0.02,6]dodeca-2(6),4,7,11-tetraen-10-yl)-N-[rac-(3R)-1-(2,2-dimethylcyclobutyl)-3-piperidyl]acetamide] | 1010 nM

Other lines, results leading:

Row | IC50 | SMILES
15 | > 10000 nM | CC(C)c1nn(CC(=O)NC2C[C@@H]3CN[C@H]2C3)c(=O)c2cc3ccsc3n12 (stereo partly drawn) [Example 88, N-[(1S,4R)-2-azabicyclo[2.2.1]heptan-6-yl]-2-(12-isopropyl-9-oxo-3-thia-1,10,11-triazatricyclo[6.4.0.02,6]dodeca-2(6),4,7,11-tetraen-10-yl)acetamidehydrochloride]
16 | 148 nM | CC(C)c1nn(CC(=O)Nc2ncncc2F)c(=O)c2cc3ccsc3n12 [Example 70, N-(5-fluoropyrimidin-4-yl)-2-(12-isopropyl-9-oxo-3-thia-1,10,11-triazatricyclo[6.4.0.02,6]dodeca-2(6),4,7,11-tetraen-10-yl)acetamide]
17 | 5950 nM | CC(C)c1nn(CC(=O)Nc2cncnc2)c(=O)c2cc3ccsc3n12 [Example 84, 2-(8-isopropyl-5-oxothieno[3′,2′:4,5]pyrrolo[1,2-d][1,2,4]triazin-6(5H)-yl)-N-pyrimidin-5-ylacetamide]
18 | > 10000 nM | CC(C)c1nn(CC(=O)NC2CCN(C(C)(C)C)C2)c(=O)c2cc3ccsc3n12 (racemic) [Example 87, 2-(12-isopropyl-9-oxo-3-thia-1,10,11-triazatricyclo[6.4.0.02,6]dodeca-2(6),4,7,11-tetraen-10-yl)-N-[rac-(3R)-1-tert-butylpyrrolidin-3-yl]acetamide]
19 | > 10000 nM | CCc1nn(CC(=O)N[C@@H]2CCCN(C)C2)c(=O)c2cc3ccsc3n12 [Example 73, 2-(12-ethyl-9-oxo-3-thia-1,10,11-triazatricyclo[6.4.0.02,6]dodeca-2(6),4,7,11-tetraen-10-yl)-N-[(3R)-1-methyl-3-piperidyl]acetamide]
20 | 2280 nM | Cc1ccc(NC(=O)Cn2nc(C(C)C)n3c(cc4ccsc43)c2=O)cn1 [Example 68, 2-(12-isopropyl-9-oxo-3-thia-1,10,11-triazatricyclo[6.4.0.02,6]dodeca-2(6),4,7,11-tetraen-10-yl)-N-(6-methyl-3-pyridyl)acetamide]
21 | > 10000 nM | CCCc1nn(CC(=O)N[C@@H]2CCCN(C3CC3)C2)c(=O)c2cc3ccsc3n12 [Example 72, N-[(3R)-1-cyclopropylpiperidin-3-yl]-2-(9-oxo-12-propyl-3-thia-1,10,11-triazatricyclo [6.4.0.02,6]dodeca-2(6),4,7,11-tetraen-10-yl)acetamide]

Same assay, conditions: LPS-primed, read-out: IL1b IC50

Row | SMILES | IC50
22 | CC(O)c1nn(CC(=O)N[C@@H]2CCCN(C3CCC3)C2)c(=O)c2cc3ccsc3n12 (single isomer, unassigned) [Example 81] | > 10000 nM
23 | CC(O)c1nn(CC(=O)N[C@@H]2CCCN(C3CC3)C2)c(=O)c2cc3ccsc3n12 (single isomer, unassigned) [Example 51] | > 10000 nM
